Assay results reported in patent US10047115B2, “Cyclic dinucleotides useful for the treatment of inter alia cancer” (priority 2015, dated 2018).

System: Female Balb/C mice
Assay: Adjuvant activity in mice, HBsAg model, serum ELISA antibody titers
Settings: for HBsAg-specific serum IgG: HBsAg administered IM with adjuvant; for Anti-HBsAg titers compared with the nonadjuvanted benchmark: mice vaccinated IM
Protocol: This objective of this study was to evaluate the potential of STING agonists of the present invention to function as adjuvants in mice using the HBsAg model.
Female Balb/C Mice were Vaccinated IM
Vaccines were delivered intramuscularly two times at 21 day intervals, and sera were evaluated for systemic antibody responses. Spleens (3 mice/group) were collected for Luminex/ICS analysis.
Sera were harvested 14dp1 and 14dp2 vaccination. Serum was evaluated by ELISA for anti-HBsAg IgG, IgG1, and IgG2a titers.

Compound | HBsAg-specific serum IgG | HBsAg-specific IgG levels, dose response (four doses, IM) | Anti-HBsAg titers compared with the nonadjuvanted benchmark | antibody titers compared with cGAMP (relative to dose)
Nc1nc2c(ncn2[C@@H]2O[C@@H]3COP(=O)(O)O[C@H]4[C@@H](F)[C@H](n5cnc6c(N)ncnc65)O[C@@H]4COP(=O)(O)O[C@@H]2[C@@H]3O)c(=O)[nH]1 [Example 1, (1R,6R,8R,9R,10R,15R,17R,18R)-17-(2-Amino-6-oxo-6,9-dihydro-1H-purin-9-yl)-8-(6-amino-9H-purin-9-yl)-9-fluoro-3,12,18-trihydroxy-2,4,7,11,13,16-hexaoxa-3λ^5,12λ^5-diphosphatricyclo[13.2.1.0^6,10]octadecane-3,12-dione] | high levels | dose responsive | significantly higher | no significant differences
Nc1nc2c(ncn2[C@@H]2O[C@@H]3COP(=O)(O)O[C@H]4[C@@H](O)[C@H](n5cnc6c(N)ncnc65)O[C@@H]4COP(=O)(O)O[C@@H]2[C@@H]3O)c(=O)[nH]1 [cGAMP, reference compound] | high levels |  | significantly higher | 
